Broadly, the EC50 is the concentration needed to bring the measured effect to its halfway point.

This note sets out measurements from patent US11498903B2 (BRISTOL-MYERS SQUIBB COMPANY, priority 2017, dated 2022).

The target in the assay is T1, human APJ receptor (Homo sapiens, UniProt P35414).
T1 construct: expressed in transfected cells
T1 sequence (P35414 1-380): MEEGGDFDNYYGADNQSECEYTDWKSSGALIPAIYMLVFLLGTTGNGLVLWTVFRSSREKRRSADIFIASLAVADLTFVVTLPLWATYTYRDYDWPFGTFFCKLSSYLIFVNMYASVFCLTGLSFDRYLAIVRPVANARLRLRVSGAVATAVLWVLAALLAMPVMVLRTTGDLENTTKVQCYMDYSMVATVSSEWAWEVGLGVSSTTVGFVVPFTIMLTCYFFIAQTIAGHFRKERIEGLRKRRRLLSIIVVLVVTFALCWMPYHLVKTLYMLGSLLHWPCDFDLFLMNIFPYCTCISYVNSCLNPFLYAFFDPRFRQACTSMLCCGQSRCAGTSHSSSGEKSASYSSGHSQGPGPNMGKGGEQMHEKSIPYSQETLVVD
Put plainly: Intracellular cAMP accumulation assay (APJ hcAMP, HTRF). It is filed as cell-based. To be noted: HEK293 cells stably expressing human APJ receptor. In short, it runs like this: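 HEK293 cells stably expressing human APJ, 5,000/well, incubated 30 min at room temperature with compound plus […] and 2 μM forskolin. cAMP read by HTRF against a cAMP standard curve; EC50 from variable-slope sigmoidal fit, Ymax as % of (Pyr1)apelin-13 inhibition.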
On the technique in general: Changes in cAMP serve as a functional read-out for many G protein-coupled receptors.

[1] abbreviates: Table 1, inhibition of forskolin-mediated cAMP production, read-out: APJ hcAMP EC50.
[2] abbreviates: Table 2, read-out: APJ cAMP Human EC50.

Like-named read-outs stand apart in the source and are kept apart here.

Turning to `CCC[C@@H](NC(=O)c1ccc(-c2cc(F)ccc2-c2nc3ccccc3[nH]2)c(C(=O)O)c1)c1ccccc1` [Example 33, 2′-(1H-1,3-benzodiazol-2-yl)-5′-fluoro-4-{[(1R)-1-phenylbutyl]carbamoyl}-[1,1′-biphenyl]-2-carboxylic acid], the EC50 was under 10 nM under setting [1] and under 10 nM under setting [2].

As for `CCC[C@@H](NC(=O)c1ccc(-c2ccc(F)cc2-c2nc3ccccc3[nH]2)c(C(=O)O)c1)c1ccccc1` [Example 34, 2′-(1H-1,3-benzodiazol-2-yl)-4′-fluoro-4-{[(1R)-1-phenylbutyl]carbamoyl}-[1,1′-biphenyl]-2-carboxylic acid], the EC50 is, setting by setting: under setting [1], under 10 nM; under setting [2], under 10 nM.

Take `CCC[C@@H](NC(=O)c1ccc(-c2cc(C)ccc2-c2nc3cc(OC)ccc3[nH]2)c(C(=O)O)c1)c1ccccc1` [Example 35, 2′-(5-methoxy-1H-1,3-benzodiazol-2-yl)-5′-methyl-4-{[(1R)-1-phenylbutyl]carbamoyl}-[1,1′-biphenyl]-2-carboxylic acid]: the EC50 is under 10 nM under setting [1] and under 10 nM under setting [2].

`CCC[C@@H](NC(=O)c1ccc(-c2cc(F)ccc2-c2nc3cc(OC)ccc3[nH]2)c(C(=O)O)c1)c1ccccc1` [Example 36, 5′-fluoro-2′-(5-methoxy-1H-1,3-benzodiazol-2-yl)-4-{[(1R)-1-phenylbutyl]carbamoyl}-[1,1′-biphenyl]-2-carboxylic acid]: the concentration giving a half-maximal response (EC50) is, setting by setting: under setting [1], under 10 nM; under setting [2], under 10 nM.

In the case of `CCC[C@@H](NC(=O)c1ccc(-c2ccc(F)cc2-c2nc3cc(OC)ccc3[nH]2)c(C(=O)O)c1)c1ccccc1` [Example 37, 4′-fluoro-2′-(5-methoxy-1H-1,3-benzodiazol-2-yl)-4-{[(1R)-1-phenylbutyl]carbamoyl}-[1,1′-biphenyl]-2-carboxylic acid], the concentration for a half-maximal effect (EC50) is under 10 nM under setting [1] and under 10 nM under setting [2].

As for `CCC[C@@H](NC(=O)c1ccc(-c2cc(C)ccc2-c2nc3cc(C(C)(C)C)ccc3[nH]2)c(C(=O)O)c1)c1ccccc1` [Example 38, 2′-(5-tert-butyl-1H-1,3-benzodiazol-2-yl)-5′-methyl-4-{[(1R)-1-phenylbutyl]carbamoyl}-[1,1-biphenyl]-2-carboxylic acid], the EC50 is, setting by setting: under setting [1], under 10 nM; under setting [2], under 10 nM.

In the case of `CCC[C@@H](NC(=O)c1ccc(-c2cc(F)ccc2-c2nc3cc(C(C)(C)C)ccc3[nH]2)c(C(=O)O)c1)c1ccccc1` [Example 39, 2′-(5-tert-butyl-1H-1,3-benzodiazol-2-yl)-5′-fluoro-4-{[(1R)-1-phenylbutyl]carbamoyl}-[1,1′-biphenyl]-2-carboxylic acid], the EC50 was 10 to 100 nM under setting [1] and 10 to 100 nM under setting [2].

In the case of `CCC[C@@H](NC(=O)c1ccc(-c2ccc(F)cc2-c2nc3cc(C(C)(C)C)ccc3[nH]2)c(C(=O)O)c1)c1ccccc1` [Example 40, 2′-(5-tert-butyl-1H-1,3-benzodiazol-2-yl)-4′-fluoro-4-{[(1R)-1-phenylbutyl]carbamoyl}-[1,1′-biphenyl]-2-carboxylic acid], the EC50 is, setting by setting: under setting [1], 10 to 100 nM; under setting [2], 10 to 100 nM.

Regarding `CCC[C@@H](NC(=O)c1ccc(-c2cc(Cl)ccc2-c2nc3ccccc3[nH]2)c(C(=O)NOC)c1)c1ccccc1` [Example 41, 2′-(1H-1,3-benzodiazol-2-yl)-5′-chloro-N2-methoxy-N4-[(1R)-1-phenylbutyl]-[1,1′-biphenyl]-2,4-dicarboxamide], the EC50 under setting [1] lay within 10 to 100 nM and the EC50 under setting [2] was in the range of 10 to 100 nM.

On to `CCC[C@@H](NC(=O)c1ccc(-c2cc(Cl)ccc2-c2nc3ccccc3[nH]2)c(C(=O)NO)c1)c1ccccc1` [Example 42, 2′-(1H-1,3-benzodiazol-2-yl)-5′-chloro-N2-hydroxy-N4-[(1R)-1-phenylbutyl]-[1,1′-biphenyl]-2,4-dicarboxamide], for which the 50% effective concentration (EC50) reads like this: under setting [1], 10 to 100 nM; under setting [2], 10 to 100 nM.

Turning to `CCC[C@@H](NC(=O)c1ccc(-c2cc(Cl)ccc2-c2nc3ccccc3[nH]2)c(C(=O)OC)c1)c1ccccc1` [Example 43, methyl 2′-(1H-1,3-benzodiazol-2-yl)-5′-chloro-4-{[(1R)-1-phenylbutyl]carbamoyl}-[1,1′-biphenyl]-2-carboxylate], the EC50 runs as follows: under setting [1], 101 to 500 nM; under setting [2], 101 to 500 nM.

As to `CCC[C@@H](NC(=O)c1ccc(-c2cc(Cl)ccc2-c2nc3ccccc3[nH]2)c(C(=O)NS(C)(=O)=O)c1)c1ccccc1` [Example 44, 2′-(1H-1,3-benzodiazol-2-yl)-5′-chloro-N2-methanesulfonyl-N4-[(1R)-1-phenylbutyl]-[1,1′-biphenyl]-2,4-dicarboxamide], the 50% effective concentration (EC50) runs as follows: under setting [1], 10 to 100 nM; under setting [2], 10 to 100 nM.

Consider `CCC[C@@H](NC(=O)c1ccc(-c2cc(Cl)ccc2-c2nc3ccccc3[nH]2)c(C(=O)NS(=O)(=O)c2ccc(Cl)cc2)c1)c1ccccc1` [Example 45, 2′-(1H-1,3-benzodiazol-2-yl)-5′-chloro-N2-(4-chlorobenzenesulfonyl)-N4-[(1R)-1-phenylbutyl]-[1,1′-biphenyl]-2,4-dicarboxamide], for which the EC50 runs as follows: under setting [1], 101 to 500 nM; under setting [2], 101 to 500 nM.

`CCC[C@@H](NC(=O)c1ccc(-c2cc(Cl)ccc2-c2nc3cc(Cl)ccc3[nH]2)c(C(=O)O)c1)c1ccccc1` [Example 47, 5′-chloro-2′-(5-chloro-1H-1,3-benzodiazol-2-yl)-4-{[(1R)-1-phenylbutyl]carbamoyl}-[1,1′-biphenyl]-2-carboxylicacid]: the 50% effective concentration (EC50) is, setting by setting: under setting [1], under 10 nM; under setting [2], under 10 nM.

Regarding `CCC[C@@H](NC(=O)c1ccc(-c2cc(Cl)ccc2-c2nc3cc(C(C)C)ccc3[nH]2)c(C(=O)O)c1)c1ccccc1` [Example 48, 5′-chloro-4-{[(1R)-1-phenylbutyl]carbamoyl}-2′-[5-(propan-2-yl)-1H-1,3-benzodiazol-2-yl]-[1,1′-biphenyl]-2-carboxylic acid], the half-maximal effective concentration (EC50) under setting [1] is under 10 nM and the concentration giving a half-maximal response (EC50) under setting [2] is under 10 nM.

In the case of `CCC[C@@H](NC(=O)c1ccc(-c2cc(Cl)ccc2-c2nc3cccc(C)c3[nH]2)c(C(=O)O)c1)c1ccccc1` [Example 49, 5′-chloro-2,-(4-methyl-1H-1,3-benzodiazol-2-yl)-4-{[(1R)-1-phenylbutyl]carbamoyl}-[1,1′-biphenyl]-2-carboxylic acid], the 50% effective concentration (EC50) was 10 to 100 nM under setting [1] and 10 to 100 nM under setting [2].

Turning to `CCC[C@@H](NC(=O)c1ccc(-c2cc(Cl)ccc2-c2nc(C)c(C)[nH]2)c(C(=O)O)c1)c1ccccc1` [Example 50, 5′-chloro-2′-(4,5-dimethyl-1H-imidazol-2-yl)-4-{[(1R)-1-phenylbutyl]carbamoyl}-[1,1′-biphenyl]-2-carboxylic acid], the EC50 runs as follows: under setting [1], 10 to 100 nM; under setting [2], 10 to 100 nM.

With `CCC[C@@H](NC(=O)c1ccc(-c2cc(C(F)(F)F)ccc2-c2nc3ccccc3[nH]2)c(C(=O)O)c1)c1ccccc1` [Example 51, 2′-(1H-1,3-benzodiazol-2-yl)-4-{[(1R)-1-phenylbutyl]carbamoyl}-5′-(trifluoromethyl)-[1,1′-biphenyl]-2-carboxylic acid], the EC50 is, setting by setting: under setting [1], under 10 nM; under setting [2], under 10 nM.

For `CCC[C@@H](NC(=O)c1ccc(-c2ccccc2-c2nc3ccccc3[nH]2)c(C(=O)O)c1)c1ccccc1` [Example 52, 2′-(1H-1,3-benzodiazol-2-yl)-4-{[(1R)-1-phenylbutyl]carbamoyl}-[1,1′-biphenyl]-2-carboxylic acid], the half-maximal effective concentration (EC50) was under 10 nM under setting [1] and under 10 nM under setting [2].
